Measured values taken from ChEMBL document CHEMBL3044945, “Synthesis of 1,3,5-trisubstituted pyrazoline nucleus containing compounds and screening for antimicrobial activity” (2012).
≈ marks a conversion by molar mass, not a printed value.

Columns and labels:
Format in all cases: functional
[1] = tested on: Bacillus subtilis; assay: Antibacterial activity against Bacillus subtilis MTCC 441 at 250 ug/ml after 48 hr by cup-plate method; conditions: MTCC 441, 48 h, read-out: DIZ
[2] = tested on: Penicillium chrysogenum; assay: Antifungal activity against Penicillium chrysogenum MTCC 161 at 750 ug/ml after 48 hr by cup-plate method; conditions: MTCC 161, 48 h, read-out: DIZ
[3] = tested on: Escherichia coli; assay: Antibacterial activity against Escherichia coli MTCC 1573 at 100 ug/ml after 48 hr by cup-plate method; conditions: MTCC 1573, 48 h, read-out: DIZ
[4] = tested on: Penicillium chrysogenum; assay: Antifungal activity against Penicillium chrysogenum MTCC 161 at 1250 ug/ml after 48 hr by cup-plate method; conditions: MTCC 161, 48 h, read-out: DIZ
[5] = tested on: Staphylococcus aureus; assay: Antibacterial activity against Staphylococcus aureus MTCC 1430 after 24 to 48 hr by tube dilution method
[6] = tested on: Micrococcus luteus; assay: Antibacterial activity against Micrococcus luteus MTCC 1538 at 1250 ug/ml after 48 hr by cup-plate method; conditions: MTCC 1538, 48 h, read-out: DIZ
[7] = tested on: Bacillus subtilis; assay: Antibacterial activity against Bacillus subtilis MTCC 441 at 1250 ug/ml after 48 hr by cup-plate method; conditions: MTCC 441, 48 h, read-out: DIZ
[8] = tested on: Escherichia coli; assay: Antibacterial activity against Escherichia coli MTCC 1573 after 24 to 48 hr by tube dilution method
[9] = tested on: Escherichia coli; assay: Antibacterial activity against Escherichia coli MTCC 1573 at 750 ug/ml after 48 hr by cup-plate method; conditions: MTCC 1573, 48 h, read-out: DIZ
[10] = tested on: Penicillium chrysogenum; assay: Antifungal activity against Penicillium chrysogenum MTCC 161 at 500 ug/ml after 48 hr by cup-plate method; conditions: MTCC 161, 48 h, read-out: DIZ
[11] = tested on: Bacillus pumilus; assay: Antibacterial activity against Bacillus pumilus MTCC 1456 at 250 ug/ml after 48 hr by cup-plate method; conditions: MTCC 1456, 48 h, read-out: DIZ
[12] = tested on: Pseudomonas aeruginosa; assay: Antibacterial activity against Pseudomonas aeruginosa MTCC 424 after 24 to 48 hr by tube dilution method
[13] = tested on: Penicillium chrysogenum; assay: Antifungal activity against Penicillium chrysogenum MTCC 161 at 100 ug/ml after 48 hr by cup-plate method; conditions: MTCC 161, 48 h, read-out: DIZ
[14] = tested on: Pseudomonas fluorescens; assay: Antibacterial activity against Pseudomonas fluorescens MTCC 2421 at 1000 ug/ml after 48 hr by cup-plate method; conditions: MTCC 2421, 48 h, read-out: DIZ
[15] = tested on: Staphylococcus aureus; assay: Antibacterial activity against Staphylococcus aureus MTCC 1430 at 750 ug/ml after 48 hr by cup-plate method; conditions: MTCC 1430, 48 h, read-out: DIZ
[16] = tested on: Aspergillus niger; assay: Antifungal activity against Aspergillus niger MTCC 2546 at 250 ug/ml after 48 hr by cup-plate method; conditions: MTCC 2546, 48 h, read-out: DIZ
[17] = tested on: Pseudomonas fluorescens; assay: Antibacterial activity against Pseudomonas fluorescens MTCC 2421 at 250 ug/ml after 48 hr by cup-plate method; conditions: MTCC 2421, 48 h, read-out: DIZ
[18] = tested on: Aspergillus niger; assay: Antifungal activity against Aspergillus niger MTCC 2546 at 500 ug/ml after 48 hr by cup-plate method; conditions: MTCC 2546, 48 h, read-out: DIZ
[19] = tested on: Bacillus subtilis; assay: Antibacterial activity against Bacillus subtilis MTCC 441 at 1000 ug/ml after 48 hr by cup-plate method; conditions: MTCC 441, 48 h, read-out: DIZ
[20] = tested on: Bacillus pumilus; assay: Antibacterial activity against Bacillus pumilus MTCC 1456 after 24 to 48 hr by tube dilution method
[21] = tested on: Bacillus pumilus; assay: Antibacterial activity against Bacillus pumilus MTCC 1456 at 100 ug/ml after 48 hr by cup-plate method; conditions: MTCC 1456, 48 h, read-out: DIZ
[22] = tested on: Bacillus pumilus; assay: Antibacterial activity against Bacillus pumilus MTCC 1456 at 1000 ug/ml after 48 hr by cup-plate method; conditions: MTCC 1456, 48 h, read-out: DIZ
[23] = tested on: Pseudomonas fluorescens; assay: Antibacterial activity against Pseudomonas fluorescens MTCC 2421 after 24 to 48 hr by tube dilution method
[24] = tested on: Aspergillus niger; assay: Antifungal activity against Aspergillus niger MTCC 2546 after 24 to 48 hr by tube dilution method
[25] = tested on: Micrococcus luteus; assay: Antibacterial activity against Micrococcus luteus MTCC 1538 at 750 ug/ml after 48 hr by cup-plate method; conditions: MTCC 1538, 48 h, read-out: DIZ
[26] = tested on: Staphylococcus aureus; assay: Antibacterial activity against Staphylococcus aureus MTCC 1430 at 1000 ug/ml after 48 hr by cup-plate method; conditions: MTCC 1430, 48 h, read-out: DIZ
[27] = tested on: Bacillus pumilus; assay: Antibacterial activity against Bacillus pumilus MTCC 1456 at 750 ug/ml after 48 hr by cup-plate method; conditions: MTCC 1456, 48 h, read-out: DIZ
[28] = tested on: Pseudomonas aeruginosa; assay: Antibacterial activity against Pseudomonas aeruginosa MTCC 424 at 500 ug/ml after 48 hr by cup-plate method; conditions: MTCC 424, 48 h, read-out: DIZ
[29] = tested on: Pseudomonas fluorescens; assay: Antibacterial activity against Pseudomonas fluorescens MTCC 2421 at 100 ug/ml after 48 hr by cup-plate method; conditions: MTCC 2421, 48 h, read-out: DIZ
[30] = tested on: Pseudomonas fluorescens; assay: Antibacterial activity against Pseudomonas fluorescens MTCC 2421 at 1250 ug/ml after 48 hr by cup-plate method; conditions: MTCC 2421, 48 h, read-out: DIZ
[31] = tested on: Pseudomonas aeruginosa; assay: Antibacterial activity against Pseudomonas aeruginosa MTCC 424 at 250 ug/ml after 48 hr by cup-plate method; conditions: MTCC 424, 48 h, read-out: DIZ
[32] = tested on: Staphylococcus aureus; assay: Antibacterial activity against Staphylococcus aureus MTCC 1430 at 250 ug/ml after 48 hr by cup-plate method; conditions: MTCC 1430, 48 h, read-out: DIZ
[33] = tested on: Bacillus subtilis; assay: Antibacterial activity against Bacillus subtilis MTCC 441 at 750 ug/ml after 48 hr by cup-plate method; conditions: MTCC 441, 48 h, read-out: DIZ
[34] = tested on: Staphylococcus aureus; assay: Antibacterial activity against Staphylococcus aureus MTCC 1430 at 500 ug/ml after 48 hr by cup-plate method; conditions: MTCC 1430, 48 h, read-out: DIZ
[35] = tested on: Pseudomonas aeruginosa; assay: Antibacterial activity against Pseudomonas aeruginosa MTCC 424 at 100 ug/ml after 48 hr by cup-plate method; conditions: MTCC 424, 48 h, read-out: DIZ
[36] = tested on: Bacillus pumilus; assay: Antibacterial activity against Bacillus pumilus MTCC 1456 at 500 ug/ml after 48 hr by cup-plate method; conditions: MTCC 1456, 48 h, read-out: DIZ
[37] = tested on: Pseudomonas aeruginosa; assay: Antibacterial activity against Pseudomonas aeruginosa MTCC 424 at 750 ug/ml after 48 hr by cup-plate method; conditions: MTCC 424, 48 h, read-out: DIZ
[38] = tested on: Micrococcus luteus; assay: Antibacterial activity against Micrococcus luteus MTCC 1538 after 24 to 48 hr by tube dilution method
[39] = tested on: Pseudomonas fluorescens; assay: Antibacterial activity against Pseudomonas fluorescens MTCC 2421 at 500 ug/ml after 48 hr by cup-plate method; conditions: MTCC 2421, 48 h, read-out: DIZ
[40] = tested on: Escherichia coli; assay: Antibacterial activity against Escherichia coli MTCC 1573 at 250 ug/ml after 48 hr by cup-plate method; conditions: MTCC 1573, 48 h, read-out: DIZ
[41] = tested on: Micrococcus luteus; assay: Antibacterial activity against Micrococcus luteus MTCC 1538 at 1000 ug/ml after 48 hr by cup-plate method; conditions: MTCC 1538, 48 h, read-out: DIZ
[42] = tested on: Penicillium chrysogenum; assay: Antifungal activity against Penicillium chrysogenum MTCC 161 after 24 to 48 hr by tube dilution method
[43] = tested on: Aspergillus niger; assay: Antifungal activity against Aspergillus niger MTCC 2546 at 1000 ug/ml after 48 hr by cup-plate method; conditions: MTCC 2546, 48 h, read-out: DIZ
[44] = tested on: Pseudomonas fluorescens; assay: Antibacterial activity against Pseudomonas fluorescens MTCC 2421 at 750 ug/ml after 48 hr by cup-plate method; conditions: MTCC 2421, 48 h, read-out: DIZ
[45] = tested on: Escherichia coli; assay: Antibacterial activity against Escherichia coli MTCC 1573 at 1000 ug/ml after 48 hr by cup-plate method; conditions: MTCC 1573, 48 h, read-out: DIZ

MIC [5]: 150 µg/mL (≈ 398 µM) | MIC [8]: 50 µg/mL (≈ 133 µM) | MIC [12]: 50 µg/mL (≈ 133 µM) | MIC [20]: 30 µg/mL (≈ 79.7 µM) | MIC [23]: 30 µg/mL (≈ 79.7 µM) | MIC [24]: 30 µg/mL (≈ 79.7 µM) | MIC [38]: 150 µg/mL (≈ 398 µM) | MIC [42]: 30 µg/mL (≈ 79.7 µM)
Structure (SMILES): NC(=S)N1N=C(c2cccc3ccccc23)CC1c1ccc([N+](=O)[O-])cc1 (stereo not given)
zone of inhibition at 250 µg/mL [1]: 11 mm | zone of inhibition at 750 µg/mL [2]: 19 mm | zone of inhibition at 100 µg/mL [3]: 8 mm | zone of inhibition at 1250 µg/mL [4]: 23 mm | zone of inhibition at 1250 µg/mL [6]: 19 mm | zone of inhibition at 1250 µg/mL [7]: 22 mm | zone of inhibition at 750 µg/mL [9]: 14 mm | zone of inhibition at 500 µg/mL [10]: 16 mm | zone of inhibition at 250 µg/mL [11]: 11 mm | zone of inhibition at 100 µg/mL [13]: 10 mm | zone of inhibition at 1000 µg/mL [14]: 23 mm | zone of inhibition at 750 µg/mL [15]: 11 mm | zone of inhibition at 250 µg/mL [16]: 11 mm | zone of inhibition at 250 µg/mL [17]: 10 mm | zone of inhibition at 500 µg/mL [18]: 17 mm | zone of inhibition at 1000 µg/mL [19]: 19 mm | zone of inhibition at 100 µg/mL [21]: 10 mm | zone of inhibition at 1000 µg/mL [22]: 19 mm | zone of inhibition at 750 µg/mL [25]: 14 mm | zone of inhibition at 1000 µg/mL [26]: 12 mm | zone of inhibition at 750 µg/mL [27]: 18 mm | zone of inhibition at 500 µg/mL [28]: 12 mm | zone of inhibition at 100 µg/mL [29]: 8 mm | zone of inhibition at 1250 µg/mL [30]: 24 mm | zone of inhibition at 250 µg/mL [31]: 11 mm | zone of inhibition at 250 µg/mL [32]: 9 mm | zone of inhibition at 750 µg/mL [33]: 16 mm | zone of inhibition at 500 µg/mL [34]: 10 mm | zone of inhibition at 100 µg/mL [35]: 10 mm | zone of inhibition at 500 µg/mL [36]: 16 mm | zone of inhibition at 750 µg/mL [37]: 16 mm | zone of inhibition at 500 µg/mL [39]: 18 mm | zone of inhibition at 250 µg/mL [40]: 9 mm | zone of inhibition at 1000 µg/mL [41]: 16 mm | zone of inhibition at 1000 µg/mL [43]: 24 mm | zone of inhibition at 750 µg/mL [44]: 22 mm | zone of inhibition at 1000 µg/mL [45]: 16 mm
